The values below come from patent US10874743B2, “IRAK degraders and uses thereof” (Kymera Therapeutics, Inc., priority 2017, dated 2020).

Assay [1] concerns the target T1, IRAK4 (Homo sapiens, UniProt Q9NWZ3).
T1 sequence (Q9NWZ3 1-460): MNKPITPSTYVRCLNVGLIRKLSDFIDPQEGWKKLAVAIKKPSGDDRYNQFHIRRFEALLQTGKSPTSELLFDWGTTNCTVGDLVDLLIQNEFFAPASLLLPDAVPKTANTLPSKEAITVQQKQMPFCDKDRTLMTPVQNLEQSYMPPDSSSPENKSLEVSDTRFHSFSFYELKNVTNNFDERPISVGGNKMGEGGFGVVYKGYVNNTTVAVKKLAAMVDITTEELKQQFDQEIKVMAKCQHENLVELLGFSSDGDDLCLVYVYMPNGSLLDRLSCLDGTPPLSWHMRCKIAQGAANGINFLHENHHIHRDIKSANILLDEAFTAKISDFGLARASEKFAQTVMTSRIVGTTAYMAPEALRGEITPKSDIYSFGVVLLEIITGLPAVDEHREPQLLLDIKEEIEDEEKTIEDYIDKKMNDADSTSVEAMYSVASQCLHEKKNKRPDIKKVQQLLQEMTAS
The assay is described as follows: OCI-LY-10 degradation assay (western blot, % IRAK4 degraded after 4 hours). To be noted: OCI-LY10 cells, 4 hours; for OCI-LY10 % IRAK4 Degradation (0.01 uM): 0.01 uM compound; for OCI-LY10 % IRAK4 Degradation (0.1 uM): 0.1 uM compound; for OCI-LY10 % IRAK4 Degradation (1 uM): 1 uM compound. More on the design: endogenous in cells; host or cells: OCI-LY10. The class given is cell-based. Summed up:
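OCI-LY10 cells (RPMI-1640, 20% FBS, 55 μM 2-ME) treated with compound at 0.003-10 μM final for 4 h at 37° C, then lysed in RIPA buffer. IRAK4 level read by fluorescent western blot (20-25 μg protein) and binned as % degraded: A >50%, B >20-50%, C <20%.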

For assay [2], the target named is T1, IRAK4. Briefly: OCI-LY-10 MSD assay for IRAK4 DC50. Format: cell-based. The following applies: OCI-LY10 cells, 4 hr incubation, concentration required to degrade 50% of protein. More on the design: endogenous in cells; host or cells: OCI-LY10. Summed up:
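OCI-Ly10 cells were exposed to compound for 4 hr across a 3-fold, 8-point dilution series. Lysates were made in RIPA buffer, and IRAK4 remaining was measured by MSD sandwich immunoassay with anti-IRAK4 capture and detection antibodies. DC50 was taken from a four-parameter logistic fit.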

By DC50 is commonly meant the midpoint of the concentration-degradation curve. Read a low DC50 as degradation at low concentration.

Molecules are shown by their SMILES.

As for `O=C1CCC(N2Cc3cc(N4CCN(CCOCCOCCNCc5ccc(-n6cc(NC(=O)c7coc(-c8ccnc(NCC9CC9)c8)n7)c(C(F)F)n6)cc5)CC4)ccc3C2=O)C(=O)N1` (stereo not drawn) [I-392], at IRAK4 [1], the “OCI-LY10 % IRAK4 Degradation (0.01 uM)” value was “B (>20-50% degradation)”, the “OCI-LY10 % IRAK4 Degradation (0.1 uM)” value is listed as “A (>50% degradation)” and the “OCI-LY10 % IRAK4 Degradation (1 uM)” value is “A (>50% degradation)”. In addition, the half-maximal degradation concentration (DC50) at IRAK4 [2] was in the range of 50 to 100 nM.

Regarding `O=C1CCC(N2C(=O)c3ccc(N4CCN(CCOCCOCCOCCNCc5ccc(-n6cc(NC(=O)c7coc(-c8ccnc(NCC9CC9)c8)n7)c(C(F)F)n6)cc5)CC4)cc3C2=O)C(=O)N1` (stereo not drawn) [I-394], at IRAK4 [1], the “OCI-LY10 % IRAK4 Degradation (0.01 uM)” value is “C (<20% degradation)”, the “OCI-LY10 % IRAK4 Degradation (0.1 uM)” value is listed as “A (>50% degradation)” and the “OCI-LY10 % IRAK4 Degradation (1 uM)” value is reported as “A (>50% degradation)”. For the same molecule, the DC50 on IRAK4 [2] lay in the range of 100 to 500 nM.

As to `NC(=O)c1nn(-c2ccc(CNCCOCCCc3cccc4c3C(=O)N(C3CCC(=O)NC3=O)C4=O)cc2)cc1NC(=O)c1coc(-c2ccnc(NCC(F)(F)F)c2)n1` (stereo not drawn) [I-320], at IRAK4 [1], the “OCI-LY10 % IRAK4 Degradation (0.01 uM)” value is on record as “C (<20% degradation)”, the “OCI-LY10 % IRAK4 Degradation (0.1 uM)” value was “B (>20-50% degradation)” and the “OCI-LY10 % IRAK4 Degradation (1 uM)” value was “B (>20-50% degradation)”. For the same molecule, the half-maximal degradation concentration (DC50) on IRAK4 [2] is greater than 1000 nM.

Turning to `CN(CCOCCOCCCc1ccc2c(c1)C(=O)N(C1CCC(=O)NC1=O)C2=O)Cc1ccc(-n2cc(NC(=O)c3coc(-c4ccnc(NCC5CC5)c4)n3)c(C(N)=O)n2)cc1` (stereo not drawn) [I-308], at IRAK4 [1], the “OCI-LY10 % IRAK4 Degradation (0.01 uM)” value was “B (>20-50% degradation)”, the “OCI-LY10 % IRAK4 Degradation (0.1 uM)” value is listed as “A (>50% degradation)” and the “OCI-LY10 % IRAK4 Degradation (1 uM)” value was “A (>50% degradation)”. Also, on IRAK4 [2], the DC50 was 50 to 100 nM.

On to `NC(=O)c1nn(-c2ccc(CNCCOCCOCCN3CCC(Nc4cccc5c4C(=O)N(C4CCC(=O)NC4=O)C5=O)CC3)cc2)cc1NC(=O)c1coc(-c2ccnc(NCC3CC3)c2)n1` (stereo not drawn) [I-395], for which, on IRAK4 [1], the “OCI-LY10 % IRAK4 Degradation (0.01 uM)” value is given as “C (<20% degradation)”, the “OCI-LY10 % IRAK4 Degradation (0.1 uM)” value is on record as “B (>20-50% degradation)” and the “OCI-LY10 % IRAK4 Degradation (1 uM)” value is on record as “B (>20-50% degradation)”. The DC50 on IRAK4 [2] is greater than 1000 nM.

For the molecule `Cn1c(=O)n(C2CCC(=O)NC2=O)c2cccc(CCCOCCOCCNCc3ccc(-n4cc(NC(=O)c5coc(-c6ccnc(NCC7CC7)c6)n5)c(C(F)F)n4)cc3)c21` (stereo not drawn) [I-332], at IRAK4 [1], the “OCI-LY10 % IRAK4 Degradation (0.01 uM)” value is reported as “A (>50% degradation)”, the “OCI-LY10 % IRAK4 Degradation (0.1 uM)” value is “A (>50% degradation)” and the “OCI-LY10 % IRAK4 Degradation (1 uM)” value is “A (>50% degradation)”. In addition, on IRAK4 [2], the DC50 was less than 50 nM.

Take `O=C1CCC(N2C(=O)c3ccc(CCOCCN4CCC(n5cc(NC(=O)c6coc(-c7ccnc(NCC8CC8)c7)n6)c(C(F)F)n5)CC4)cc3C2=O)C(=O)N1` (stereo not drawn) [I-262]: on IRAK4 [1], the “OCI-LY10 % IRAK4 Degradation (0.01 uM)” value is reported as “C (<20% degradation)”, the “OCI-LY10 % IRAK4 Degradation (0.1 uM)” value is listed as “B (>20-50% degradation)” and the “OCI-LY10 % IRAK4 Degradation (1 uM)” value was “B (>20-50% degradation)”. In addition, the DC50 on IRAK4 [2] is greater than 1000 nM.

In the case of `O=C1CCC(n2c(=O)oc3c(CCCOCCOCCNC(=O)c4ccc(-n5cc(NC(=O)c6coc(-c7ccnc(NCC8CC8)c7)n6)c(C(F)F)n5)cc4)cccc32)C(=O)N1` (stereo not drawn) [I-265], on IRAK4 [1], the “OCI-LY10 % IRAK4 Degradation (0.01 uM)” value is “B (>20-50% degradation)”, the “OCI-LY10 % IRAK4 Degradation (0.1 uM)” value is recorded as “A (>50% degradation)” and the “OCI-LY10 % IRAK4 Degradation (1 uM)” value is “A (>50% degradation)”. At IRAK4 [2], this molecule displayed a DC50 of less than 50 nM.

In the case of `NC(=O)c1nn(-c2ccc(CNCCOCCOCCn3c(=O)n(C4CCC(=O)NC4=O)c4ccccc43)cc2)cc1NC(=O)c1coc(-c2ccnc(NCC3CC3)c2)n1` (stereo not drawn) [I-319], at IRAK4 [1], the “OCI-LY10 % IRAK4 Degradation (0.01 uM)” value is given as “B (>20-50% degradation)”, the “OCI-LY10 % IRAK4 Degradation (0.1 uM)” value was “A (>50% degradation)” and the “OCI-LY10 % IRAK4 Degradation (1 uM)” value is “A (>50% degradation)”. On IRAK4 [2], the DC50 is less than 50 nM.
